Measurements published in EP0102195A2, “Substituted aza bicycloalkyl derivatives with dopamine antagonist activity” (BEECHAM GROUP PLC, priority 1982, dated 1984).

Key:
Heidenhain pouch = Heidenhain pouch test (gastric motility enhancing activity); type: in vivo, Male Beagle dogs; settings: Beagle dogs; for period of activity: Heidenhain pouch
Dopamine receptor = experiment: Inhibition of apomorphine induced climbing in the mouse (central dopamine receptor blocking activity); type: in vivo; settings: apomorphine 1 mg/kg s.c.
rats = experiment: Increase in intragastric pressure (gastric motility enhancing activity); type: in vivo; settings: 0.5 mg/kg s.c.; conscious restrained rats; average height of pressure waves, 40 minutes post dose vs pre-dose, Student's t test
Description: Intragastric pressure changes were recorded from previously starved conscious but restrained rats using a saline filled catheter inserted into the lumen of the stomach via a permanent gastric fistula. The catheter was connected to a physiological pressure transducer and pressure changes recorded on a hot wire pen recorder. In each animal a pre-dose period of 40 minutes was allowed to obtain a measure of spontaneous activity. An index of activity was obtained by measuring the average height of pressure waves during 10 minute periods. Values for 4 such periods were obtained during assessment of spontaneous activity and for 40 minute period after administration of compound. Student's "t" test was applied to the difference in average values obtained for spontaneous and post compound activity.

dog = experiment: Anti-emetic activity in the dog (apomorphine-induced vomiting); type: in vivo; settings: for ED50: Canis lupus familiaris, sc, 30 minutes prior to apomorphine HCl 0.1 mg/kg subcutaneously, vomiting response
Description: Compounds were administered subcutaneously 30 minutes prior to administration of a standard dose of apomorphine HCl (0.1 mg/kg subcutaneously) and the vomiting response compared to that obtained when the same animals were dosed with apomorphine HC1 and vehicle only.

Structure (SMILES)	period of activity (Heidenhain pouch)	index of activity post administration (rats)	motility of the pouch (activity) (Heidenhain pouch; dose of 0.5 mg/kg s.c.)	inhibition of apomorphine induced climbing (Dopamine receptor; dose of 10 mg/kg s.c.)	ED50 (dog)	also measured
CNc1ccc(S(=O)(=O)N(C)C)cc1C(=O)N[C@@H]1C[C@H]2CC[C@@H](C1)N2Cc1ccccc1 [Example 3, 5-Dimethylaminosulphonyl-2-methylamino-N(3'β(8'-benzyl-8'-azabicyclo{3.2.1}octyl)]benzamide]	greater than 1 hour	significantly increased	–	–	–	motility of the pouch (activity) (Heidenhain pouch; dose of 0.1 mg/kg s.c.): active; inhibition of apomorphine induced climbing (Dopamine receptor; dose of 25 mg/kg s.c.): inactive
CN(C)c1ccc(S(=O)(=O)N(C)C)cc1C(=O)N[C@@H]1C[C@H]2CC[C@@H](C1)N2Cc1ccccc1 [Example 2, 2-Dimethylamino-5-dimethylaminosulphonyl-ls(3'6-(8'-benzyl-8'-azabicyclo{3.2.1]octyl)]-benzamide]	–	–	active	inactive	0.1 mg/kg	–
CCNc1ccc(S(=O)(=O)N(C)C)cc1C(=O)N[C@@H]1C[C@H]2CC[C@@H](C1)N2Cc1ccccc1 [Example 5, 5-Dimethylaminosulphonyl-2-ethylamino-N[3 ε'-(8' -benzyl-8' -azabicyclo'{3.2.1)octyl)]-benzamide]	–	significantly increased	–	inactive	–	–
CNc1cccc(OC)c1C(=O)N[C@@H]1C[C@H]2CC[C@@H](C1)N2Cc1ccccc1 [Example 12, 2-Methylamino-6-methoxy-N-[3β-(8-benzyl-8-azabicyclo (3,2,1)octyl)]benzamide]	–	–	–	–	–	anti-emetic activity (dog; dose of 0.01 mg/kg s.c., apomorphine HCl 0.1 mg/kg subcutaneously): active
CCOC(=O)N(C)c1ccc(S(=O)(=O)N(C)C)cc1C(=O)N[C@@H]1C[C@H]2CC[C@@H](C1)N2Cc1ccccc1 [Example 4, 5-Dimethylaminosulphonyl-2-(N-methyl-N-ethoxycarbonyl)amino-N [3'8-(8'-benzyl-8'-azabicyclo{3.2.1]octyl)] benzamide]	–	–	–	inactive	–	–
CN(C)S(=O)(=O)c1ccc(NC2CC2)c(C(=O)N[C@@H]2C[C@H]3CC[C@@H](C2)N3Cc2ccccc2)c1 [Example 6]	greater than 1 hour	significantly increased	active	inactive	0.5 mg/kg	–
